Reference: EP4652842A1, “BIOPESTICIDE COMPOSITION, PROCEDURE OF OBTAIN THEREOF, AND METHOD FOR CONTROLLING AND TREATING BROAD SPECTRUM OF PESTS, DISEASES AND WEEDS IN PLANTS” (priority 2024, dated 2025)
Where two headings read alike, the source gives them in different places.

Key:
Type in all cases: in vivo
[1] = system: Bemisia tabaci
Experimental: (§1) The objective of this bioassay is to evaluate the effect of test items on the mortality of adult insects and mites in a short/medium-term (0-24 hours) by topical application. Tests were conducted in plastic net bottles. A total of 10 replicates for each treatment (tests items and negative control) were used in each experiment and temporarily replicated 3 times along the week. (Figure 12)
(§2) Numbers of live and dead adult insects and mites were counted at 24 h post-treatment. Adult insects and mites were considered dead if no movement was apparent after probing with the tip of a fine brush under stereoscopic magnifying glass. Mortality percentage was calculated in treatment and control groups. If the mortality in negative control is above 20% the test was discarded.
(§3) Means of %M were compared using a one-way analysis of variance (ANOVA, p<0.05) and LSD-test as a post hoc test to verify significant differences between single treatments using Statgraphics Centurion XVII software. When nonnormality in the data was detected, an additional Kruskal-Wallis test was conducted, and Box-and-Whisker Plot (Median Notch) was presented.
(§4) The different compositions were tested by trials that were carried out on different relevant insect pests and acari including: Tuta absoluta, Bemisia tabaci, Myzus persicae, Frankliniella occidentalis and Tetranychus urticae. The bioassay type used was contact mortality (Leaf Disc Method) described in the example 4.
(§5) The main treatments included in the comparison of efficacy are: Group A: Individual solvents: Benzyl alcohol, ethanol, isopropanol, and water were applied directly (purity as in the label) diluted at 0.3% (3cc/L) in water without formulation. Group B: Vegetable matrix extracts were extracted with different solvents such as benzyl alcohol, ethanol, isopropanol, and water.

[2] = system: Frankliniella occidentalis
Experimental: as §1, §2, §3, §4, §5

[3] = system: Myzus persicae
Experimental: as §1, §2, §3, §4, §5

[4] = system: Tetranychus urticae
Experimental: as §1, §2, §3, §4, §5

[5] = system: Tuta absoluta
Experimental: as §1, §2, §3, §4, §5

[6] = system: Bemisia tabaci; experiment: Antifeedant effects: settling inhibition
Experimental: (§6) The concept of antifeedant as a substance that acts on insect behaviour involves feeding reduction (FR), settling inhibition (SI) and oviposition Inhibition (IO). In some cases, settling inhibition is considered as indirect repellent effect. […] It is based on the preference of target adults for treated and non-treated host plants located in the same entomological cages (in plant assays). The experiments were conducted in bugdorm®-type net cages (Figure 13). Four similar host plants (two leaf stage) were transferred to a same pot (Figure 14). Two of the plants were sprayed with biopesticide compositions and the others with the control and dried for 30 minutes. Target adults were released at the site that was equidistant from the two plants. A total of 5 cages for each treatment (four plants each) and control were used in each experiment and replicated 3 times in different days. […] After 24 hours, the number of settled adults in treated and non-treated plants and the number of laid eggs were recorded on the upper and underside of each leaf. Number of adults and eggs were counted under a stereomicroscope. […] T= Settling of treated plants; C= Setting of control plants. Means of %Sl and %IO were analysed for significance by the non-parametric Wilcoxon signed-rank test (p < 0.05).

[7] = system: Myzus persicae; experiment: Antifeedant effects: settling inhibition
Experimental: as §6

[8] = system: Frankliniella occidentalis; experiment: Antifeedant effects: feeding reduction; details: F. occidentalis
[9] = system: Tuta absoluta; experiment: Antifeedant effects: feeding reduction
[10] = system: Tetranychus urticae; experiment: Antifeedant effects: settling inhibition and oviposition inhibition; details: T. urticae
Experimental: as §6, with “control plants. […] Means of” for “control plants. Means of”

[11] = %SI settling inhibition index, at sublethal concentration 0.021 %
[12] = antifeedant/repellent, concentration under the lethal EC50
[13] = %FR feeding reduction index, at sublethal concentration 0.014 %

## CC(C)=CCCC(C)=CC=O [Citral]
[1]; in vivo
  %M: 20.7 ±7.3%
[2]; in vivo
  %M: 27.8 ± 3.6%
[3]; in vivo
  %M: 30.2 ±5.8%
[4]; in vivo
  %M: 16.9 ± 3.9%
[5]; in vivo
  %M: 0.0 ±0.0%

## COC(=O)C=Cc1ccccc1 [Methyl cinnamate]
[1]; Bemisia tabaci, at sublethal concentration 0.014 %, Abbott's corrected
  %M: 14.5 ± 9.8%
[1]; Bemisia tabaci, contact mortality, concentration under the lethal EC50
  Sublethal concentration (%): 0.014%
[2]; Frankliniella occidentalis, at sublethal concentration 0.021 %, Abbott's corrected
  %M: 25.6 ± 4.6%
[2]; Frankliniella occidentalis, contact mortality, concentration under the lethal EC50
  Sublethal concentration (%): 0.021%
[3]; Myzus persicae, at sublethal concentration 0.014 %, Abbott's corrected
  %M: 17.1 ± 4.7%
[3]; Myzus persicae, contact mortality, concentration under the lethal EC50
  Sublethal concentration (%): 0.014%
[4]; Tetranychus urticae, at sublethal concentration 0.021 %, Abbott's corrected
  %M: 24.7 ± 6.9%
[4]; Tetranychus urticae, contact mortality, concentration under the lethal EC50
  Sublethal concentration (%): 0.021%
[5]; Tuta absoluta, at sublethal concentration 0.021 %, Abbott's corrected
  %M: 17.5 ± 5.9%
[5]; Tuta absoluta, contact mortality, concentration under the lethal EC50
  Sublethal concentration (%): 0.021%
[6]; [11]
  %SI/ %FR: 14.4 ± 3.6%
[6]; [12]
  Sublethal concentration (%): 0.021%
[7]; %SI settling inhibition index, at sublethal concentration 0.014 %
  %SI/ %FR: 17.9 ± 6.7%
[7]; [12]
  Sublethal concentration (%): 0.014%
[8]; [13]
  %SI/ %FR: 22.2 ± 2.1%
[8]; [12]
  Sublethal concentration (%): 0.014%
[9]; [13]
  %SI/ %FR: 30.4 ± 5.7%
[9]; [12]
  Sublethal concentration (%): 0.014%
[10]; [11]
  %SI/ %FR: 20.0 ± 4.6%
[10]; [12]
  Sublethal concentration (%): 0.021%
